From patent US11612603B1, “3-triazolyl methyl-1,3,5-triazine-2,4-dione compounds and preparation method and application thereof” (priority 2022, dated 2023) come the findings set out here.

“And” between values parts separate entries of the source, which are not always exact repeats. Equal entries are not always repeated.

The assay deals with SARS-CoV-2 3CL^pro (Severe acute respiratory syndrome coronavirus 2 (2019-nCoV) (SARS-CoV-2), UniProt P0DTD1). Briefly: biochemical. Conditions: for IC50: 3CL^pro FRET.

What is called IC50 is the concentration that gives 50% inhibition. A high value points to weaker potency. As to `CC(C)Cn1nncc1Cn1c(=O)[nH]/c(=N\c2cc3cn(C)nc3cc2Cl)n(Cc2cc(F)c(F)cc2F)c1=O` [Compound 23], the IC50 was less than 200 nM. On to “(E)-6-(6-chloro-2-methyl-2H-indazol-5-yl)imino)-3-(1-ethyl-1H-1,2,3-triazole-5-yl)methyl)-1-(2,4,5-trifluorobenzyl)-1,3,5-triazine-2,4-dione [Compound 17]”, for which the IC50 is < 200 nM and < 100 nM and 123 nM. Further, under “class symbols”, the IC50 was less than 100 nM. Moreover, for the setting “Conc 0.1 nM”, the “Inhibitory activity on 3CL^pro (inhibition rate)” value (“Inhibitory activity on 3CL^pro” for short) worked out at 0.65%. Moreover, the “Inhibitory activity on 3CL^pro” value (Conc 1 nM) was found to be 5.00%. Besides, for the setting “Conc 5 nM”, the “Inhibitory activity on 3CL^pro” value was found to be 8.20%. Further, the “Inhibitory activity on 3CL^pro” value (Conc 10 nM) turned out to be 15.16%. For the same compound, where the note is “Conc 20 nM”, the “Inhibitory activity on 3CL^pro” value came to 18.22%. The “Inhibitory activity on 3CL^pro” value (Conc 30 nM) came out at 24.39%. Also, for the setting “Conc 50 nM”, the “Inhibitory activity on 3CL^pro” value is given as 33.16%. Moreover, the “Inhibitory activity on 3CL^pro” value (Conc 100 nM) is 45.44%. The “Inhibitory activity on 3CL^pro” value (Conc 500 nM) stood at 70.62%. Further, the “Inhibitory activity on 3CL^pro” value (Conc 1000 nM) was 89.73%. `Cn1cc2cc(/N=c3\[nH]c(=O)n(Cc4cnnn4C4CCC4)c(=O)n3Cc3cc(F)c(F)cc3F)c(Cl)cc2n1` [Compound 24] had an IC50 (class symbols) of 200 to 500 nM. `Cn1cc2cc(/N=c3\[nH]c(=O)n(Cc4cnnn4C)c(=O)n3Cc3cc(F)c(F)cc3F)c(Cl)cc2n1` [Compound 16] registered an IC50 of less than 200 nM. Take “(E)-6-(6-chloro-2-methyl-2H-indazol-5-yl)imino)-3-(1-ethyl-1H-1,2,3-triazole-5-yl)methyl)-1-(4-fluorobenzyl)-1,3,5-triazine-2,4-dione [Compound 20]”: the IC50 (class symbols) lay within 200 to 500 nM.

Consider “(E)-6-(6-chloro-2-methyl-2H-indazol-5-yl)imino)-3-(1-ethyl-1H-1,2,3-triazole-5-(yl)methyl)-1-(4-(trifluoromethyl)benzyl)-1,3,5-triazine-2,4-dione [Compound 18]”, for which the IC50 was less than 100 nM. The compound also returned an IC50 (class symbols) of less than 100 nM. In the case of `Cn1cc2cc(/N=c3\[nH]c(=O)n(Cc4cnn[nH]4)c(=O)n3Cc3ccc(F)cc3)c(Cl)cc2n1` [Compound 8], where the note is “class symbols”, the IC50 lay in the range of 200 to 500 nM. Consider `COc1cc(Cn2c(=O)n(Cc3cnn[nH]3)c(=O)[nH]/c2=N\c2cc3cn(C)nc3cc2Cl)cc(OC)c1` [Compound 14], for which the IC50 (class symbols) was in the range of 500 to 1000 nM. Still for that read-out and setting: for `COc1ccc(Cn2c(=O)n(Cc3cnn[nH]3)c(=O)[nH]/c2=N\c2cc3cn(C)nc3cc2Cl)cc1` [Compound 6] the value was more than 1000 nM; for “(E)-6-(2-methyl-2H-indazol-5-yl)imino)-3-(1-ethyl-1H-1,2,3-triazol-5-yl)methyl)-1-(4-fluorobenzyl)-1,3,5-triazine-2,4-dione [Compound 19]”, 200 to 500 nM. `Cn1cc2cc(/N=c3\[nH]c(=O)n(Cc4cnn[nH]4)c(=O)n3Cc3ccc(OC(F)(F)F)cc3)c(Cl)cc2n1` [Compound 7]: the IC50 is less than 100 nM. In addition, the IC50 (class symbols) was less than 100 nM. In turn, `Cn1cc2cc(/N=c3\[nH]c(=O)n(Cc4cnn[nH]4)c(=O)n3Cc3cc(F)cc(F)c3)c(Cl)cc2n1` [Compound 15] had an IC50 of less than 200 nM. The compound `Cn1cc2cc(/N=c3\[nH]c(=O)n(Cc4cnn[nH]4)c(=O)n3Cc3ccccc3)c(Cl)cc2n1` [Compound 2] returned an IC50 (class symbols) of 500 to 1000 nM. For the setting “class symbols”, `Cn1cc2cc(/N=c3\[nH]c(=O)n(Cc4cnnn4C4CC4)c(=O)n3Cc3cc(F)c(F)cc3F)c(Cl)cc2n1` [Compound 21] showed an IC50 of 200 to 500 nM. `Cc1ccc(Cn2c(=O)n(Cc3cnn[nH]3)c(=O)[nH]/c2=N\c2cc3cn(C)nc3cc2Cl)cc1` [Compound 3] had an IC50 (class symbols) of 500 to 1000 nM.

The compound `Cn1cc2cc(/N=c3\[nH]c(=O)n(Cc4cnn[nH]4)c(=O)n3Cc3ccc(C(C)(C)C)cc3)c(Cl)cc2n1` [Compound 4] yielded an IC50 (class symbols) of 500 to 1000 nM.

In turn, `CC(C)n1nncc1Cn1c(=O)[nH]/c(=N\c2cc3cn(C)nc3cc2Cl)n(Cc2cc(F)c(F)cc2F)c1=O` [Compound 22] yielded an IC50 of less than 200 nM.

Where the note is “class symbols”, `Cn1cc2cc(/N=c3\[nH]c(=O)n(Cc4cnn[nH]4)c(=O)n3Cc3ccc(Cl)cc3)c(Cl)cc2n1` [Compound 9] registered an IC50 of 200 to 500 nM. The same measure, in the same setting: for `Cc1cc(C)cc(Cn2c(=O)n(Cc3cnn[nH]3)c(=O)[nH]/c2=N\c2cc3cn(C)nc3cc2Cl)c1` [Compound 13] the value was 500 to 1000 nM; for `Cn1cc2cc(/N=c3\[nH]c(=O)n(Cc4cnn[nH]4)c(=O)n3Cc3ccc([N+](=O)[O-])cc3)c(Cl)cc2n1` [Compound 5], 200 to 500 nM.
